# According to publication PMC7546004, “Targeting BCL10 by small peptides for the treatment of B cell lymphoma” (Theranostics, 2020):
# Square brackets hold non-standard residues; d marks the D form. Peptide text beside a SMILES is read from it.
# What was measured:
# BCL10 = biological target: T1, BCL10 (Homo sapiens, UniProt O95999); test: In vitro BCL10 filamentation assay (negative-stain electron microscopy); type: biochemical; conditions: MBP-BCL10 and peptide premixed at 1:1 or 1:2 molar ratio, RT 30 min, then TEV cleavage
# T1 sequence (O95999 1-233): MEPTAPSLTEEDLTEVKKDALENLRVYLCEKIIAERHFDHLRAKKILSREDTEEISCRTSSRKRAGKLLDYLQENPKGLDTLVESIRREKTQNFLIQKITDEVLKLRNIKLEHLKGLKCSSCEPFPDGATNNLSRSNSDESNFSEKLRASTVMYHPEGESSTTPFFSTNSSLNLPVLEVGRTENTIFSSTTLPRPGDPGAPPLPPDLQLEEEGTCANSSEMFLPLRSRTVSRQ
# Experimental: MBP-BCL10 was expressed and purified as previously described. MBP-BCL10 and BCL10 peptide inhibitors were premixed at a 1:1 or 1:2 molar ratio at RT for 30 minutes before adding TEV to cleave the MBP tag. 5 μL of reaction mixture was applied to copper grids (Beijing Zhongjingkeyi Technology Co., Cat. No. BZ10024a), where it remained for 1 minute and was then negatively stained with 3% uranyl acetate for 1 minute, air-dried and imaged with a JEM-1230 TEM at 100 keV.
# TMD8 and SU-DHL4 cells = test: Apoptosis (annexin V / PI staining); type: cell-based; conditions: annexin V+/PI- plus annexin V+/PI+, 24 h; two independent experiments
# Experimental: ([…]); shBcl10 ([…] TGT […]). Lentivirus production using […]
# selected with puromycin (Invitrogen, A1113803) for 2 weeks. Log phase growing cells were seeded […]
# The number cells were measured by flow […]
# Cells were harvested and RNA was extracted and quantified. Synthesis of cDNA was performed […]
# QuantStudio 6 Flex (Applied Biosystems). RNA was normalized by β-Actin or GAPDH mRNA. The following quantitative PCR primers were used: […]
# hGAPDH-F: 5′-[…] T […]- 3’ […]
# hGAPDH-R: 5’-TACT T TAT […]-3’ […]
# hActin- F: 5’-[…]-3’ […]
# hActin- R: 5’-TC A […]-3’ […]
# hIL10- F: 5’-GGT […] TGTCTGA-3’ […]
# hIL10- R: 5’-AGGGAGT […]-3’ […]
# hIL6-R: 5’- […]-3 ’. […]
# hBcl10-F: 5’-[…] TAGAAA-3’ […]
# hBcl10-R: 5’-[…] T-3’ […]
# wa sh e d and lysed with RIPA buffer. Biotinylated BCL10 -P4 in cells were determined by immunoblotting with Streptavidin (Cell signaling, cat. #3999S).
# Apoptosis and cell cycle:
# 1:100 dilution for 15 min at room temperature in the dark. Signals from FL1 and FL3 channels were collected by MACSQuant analyzer and data were analyzed using FloJo (Ashland, OR). […]
# For cell cycle analysis, cells were washed twice with cold PBS and fixed in 70% ethanol overnight at 4°C. […] DNA content was measured by BD LSRII flow cytometer and data were analyzed in FloJo. […]
# All extracts were treated with DNase in column during RNA purification. RNA integrity was determined on an Agilent 2100 Bioanalyzer (Agilent Technologies, SantaClara, CA). […]
smiles,measurement,setting,value
CC[C@@H](C)[C@@H](NC(=O)[C@@H](CCCCN)NC(=O)[C@H](NC(=O)[C@@H](Cc1c[nH]c2ccccc12)NC(=O)[C@@H](Cc1ccccc1)NC(=O)[C@@H](CCC(N)=O)NC(=O)[C@@H](CC(N)=O)NC(=O)[C@@H](CCCNC(=N)N)NC(=O)[C@@H](CCCNC(=N)N)NC(=O)[C@@H](CCSC)NC(=O)[C@@H](CCCCN)NC(=O)[C@@H](Cc1c[nH]c2ccccc12)NC(=O)[C@@H](CCCCN)NC(=O)[C@@H](CCCCN)NC(=O)[C@@H](CCCNC(=N)N)NC(=O)[C@H](NC(=O)[C@@H](CO)NC(=O)[C@@H](CO)NC(=O)[C@@H](CCCNC(=N)N)NC(=O)[C@@H](CCCCN)NC(=O)[C@@H](CCCNC(=N)N)NC(=O)[C@@H](C)NC(=O)CNC(=O)[C@@H](CCCCN)NC(=O)[C@@H](CC(C)C)NC(=O)[C@@H](CC(C)C)NC(=O)[C@@H](CC(=O)O)NC(=O)[C@@H](Cc1ccc(O)cc1)NC(=O)[C@@H](CC(C)C)NC(=O)[C@@H](CCC(N)=O)NC(=O)[C@H](N)CCC(=O)O)[C@H](C)O)[C@H](C)CC)C(=O)N[C@H](CCC(N)=O)C(=O)N[C@H](CCCNC(=N)N)C(=O)N[C@H](CC(=O)O)C(=O)O [DRI-BCL10-P4] (H-[dE][dQ][dL][dY][dD][dL][dL][dK]G[dA][dR][dK][dR][dS][dS][dT][dR][dK][dK][dW][dK][dM][dR][dR][dN][dQ][dF][dW][dI][dK][dI][dQ][dR][dD]-OH),BCL10 filament formation (EM),BCL10,effectively disrupted BCL10 filament formation
same,apoptosis of TMD8 and SU-DHL4 cells,TMD8 and SU-DHL4 cells,induced apoptosis
